Data reported in patent US8426408B2, “Pyrimidine inhibitors of kinases” (AbbVie Inc., priority 2009, dated 2013).

Columns and labels:
Type in all cases: biochemical
Aurora B = molecular target: T1, Aurora B (Homo sapiens, UniProt Q96GD4); experiment: Aurora B enzyme inhibition (time-resolved fluorescence, histone H3 peptide); conditions: 1 mM ATP
T1 construct: Active Aurora B enzyme (recombinant residues 1-344)
Description: To determine Aurora B activity of representative compounds of the invention, Active Aurora B enzyme (recombinant residues 1-344) and INCENP (recombinant GST fusion protein (Upstate)) were incubated in wells of a 384 well plate with biotinylated histone H3 peptide residues 1-21 (Upstate), 1 mM ATP, and various concentrations of inhibitors in a HEPES buffer, pH 7.4 containing MgCl2, sodium othrovanadate, and Triton X-100. After 1 hour, the reaction was stopped with EDTA and anti-phospho-histone H3 Europium Cryptate (Cis-Bio) and SA-APC (Phycolink, Prozyme) were added to detect the phosphopeptide. The amount of phosphorylation was determined by the time-resolved fluorescence ratio of signals at 665 nm and 615 nm. The IC50's were calculated by an exponential fit of the inhibition values with the inhibitor concentrations using Assay Explorer software.

Aurora A = molecular target: T2, Aurora A (Homo sapiens, UniProt O14965); experiment: Aurora A enzyme inhibition (time-resolved fluorescence, STK substrate-2); conditions: 1 mM ATP
T2 sequence (O14965 1-403): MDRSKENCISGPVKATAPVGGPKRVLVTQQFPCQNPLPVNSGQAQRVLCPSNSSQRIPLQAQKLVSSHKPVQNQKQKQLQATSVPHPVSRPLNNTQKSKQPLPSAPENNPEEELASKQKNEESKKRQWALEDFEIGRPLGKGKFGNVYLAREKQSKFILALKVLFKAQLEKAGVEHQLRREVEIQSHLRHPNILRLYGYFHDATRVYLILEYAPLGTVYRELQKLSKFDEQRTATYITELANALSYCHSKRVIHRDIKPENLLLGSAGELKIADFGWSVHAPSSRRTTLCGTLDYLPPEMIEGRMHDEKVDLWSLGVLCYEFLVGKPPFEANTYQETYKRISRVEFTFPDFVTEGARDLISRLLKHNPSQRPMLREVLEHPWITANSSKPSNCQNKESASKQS
Description: To determine Aurora A and C activity of representative compounds of the invention, Active Aurora A or C enzyme was incubated in wells of a 384 well plate with biotinylated STK substrate-2 (Upstate), 1 mM ATP, and various concentrations of inhibitors in a Hepes buffer, pH 7.4 containing MgCl2, sodium othrovanadate, and Triton X-100. After 1 hour, the reaction was stopped with EDTA and anti-phospho-STK antibody Europium Cryptate (Upstate) and SA-XL665 (Upstate) were added to detect the phosphopeptide. The amount of phosphorylation was determined by the time-resolved fluorescence ratio of signals at 665 nm and 615 nm. The IC50s were calculated by an exponential fit of the inhibition values with the inhibitor concentrations using Assay Explorer software.

KDR = KDR (Homo sapiens, UniProt P35968); experiment: KDR HTRF in vitro kinase assay; set-up: purified enzyme (His6-KDR 789-1354, MW 63 kD); His6 (N); conditions: 1 mM ATP; read-out: KDR enzyme inhibition data (Ki)
Description: To determine the activity of the various kinases, a homogenous time-resolved fluorescence (HTRF) in vitro kinase assay was used. (Mathis, G., HTRF® Technology. J Biomol Screen, 1999. 4(6): p. 309-314; Alfred J. Kolb, Paul V. Kaplita, David J. Hayes, Young-Whan Park, Christine Pernell, John S. Major and Gerard Mathis, Drug Discovery Today, 1998, 3, 333-342.)
For example for KDR, 7 ng/well of purified enzyme (His6-KDR 789-1354, MW 63 kD) was mixed with 0.5 μM N-biotinylated substrate (Biotin-Ahx-AEEEYFFLA-amide (SEQ. ID. 1)), various concentrations of inhibitor in reaction buffer (50 mM HEPES, pH 7.1, 10 mM MgCl2, 2 mM MnCl2, 0.1% BSA and 1 mM DTT, 40 L final volume), ATP (1 mM final conc.) in a black 384-well plate. After 60 minutes incubation at room temperature, the reaction was quenched by addition of a buffered EDTA solution (final approximate concentrations: 30 mM EDTA, 0.1% BSA, 0.1% Triton X-100 and 0.24M KF) and a solution of revelation agents (to give 0.084 ng/well streptavidin-XL-665 (Cis-Bio) and 6.5 ng/well antiphsophotyrosine mAb PT66-K Europium kryptate) was added to the reaction mixture. The quenched reaction was allowed to stand at room temperature for 3 hours and was then read in a time-resolved fluorescence detector (InVision, Perkin-Elmer) at 620 nm and 665 nm sequentially with excitation. The ratio between the signal of 620 nm and 665 nm was used in the calculation of the IC50.

Measured: Ki

KDR, sequence (P35968 789-1354): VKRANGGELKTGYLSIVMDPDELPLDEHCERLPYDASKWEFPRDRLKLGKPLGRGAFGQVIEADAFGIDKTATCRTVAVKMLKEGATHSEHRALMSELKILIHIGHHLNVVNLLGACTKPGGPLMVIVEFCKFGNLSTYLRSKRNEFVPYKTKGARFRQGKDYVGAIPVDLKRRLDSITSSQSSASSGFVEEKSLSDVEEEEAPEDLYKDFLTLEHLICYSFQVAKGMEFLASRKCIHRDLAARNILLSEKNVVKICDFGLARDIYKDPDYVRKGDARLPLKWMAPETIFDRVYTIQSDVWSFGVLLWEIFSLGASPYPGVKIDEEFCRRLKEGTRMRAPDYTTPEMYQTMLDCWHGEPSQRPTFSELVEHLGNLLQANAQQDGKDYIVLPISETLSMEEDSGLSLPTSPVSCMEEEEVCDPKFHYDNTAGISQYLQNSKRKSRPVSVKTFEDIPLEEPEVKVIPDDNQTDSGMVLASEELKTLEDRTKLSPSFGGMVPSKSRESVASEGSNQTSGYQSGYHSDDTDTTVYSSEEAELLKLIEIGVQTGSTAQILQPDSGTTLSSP
T1 sequence (Q96GD4 whole entry, the tested form may be a part): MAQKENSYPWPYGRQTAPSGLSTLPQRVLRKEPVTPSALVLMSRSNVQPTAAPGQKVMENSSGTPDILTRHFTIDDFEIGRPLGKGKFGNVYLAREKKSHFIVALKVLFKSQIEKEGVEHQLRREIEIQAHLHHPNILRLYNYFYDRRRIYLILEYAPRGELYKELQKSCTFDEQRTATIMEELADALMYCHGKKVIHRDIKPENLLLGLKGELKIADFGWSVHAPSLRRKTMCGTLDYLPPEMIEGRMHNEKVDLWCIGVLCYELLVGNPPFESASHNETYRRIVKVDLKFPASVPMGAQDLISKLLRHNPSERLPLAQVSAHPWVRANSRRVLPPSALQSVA
T1 sequence (Q9NQS7 826-918 partner limits assumed): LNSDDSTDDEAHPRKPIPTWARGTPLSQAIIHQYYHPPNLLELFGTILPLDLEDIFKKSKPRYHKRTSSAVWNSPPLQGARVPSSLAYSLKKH

(1S,2S,3R,4R)-3-[(5-chloro-2-{[1-(2-morpholin-4-ylethyl)-1H-pyrazol-4-yl]amino}pyrimidin-4-yl)amino]bicyclo[2.2.1]hept-5-ene-2-carboxamide and (1R,2R,3S,4S)-3-[(5-chloro-2-{[1-(2-morpholin-4-ylethyl)-1H-pyrazol-4-yl]amino}pyrimidin-4-yl)amino]bicyclo[2.2.1]hept-5-ene-2-carboxamide [Example 37]
< 100 nM: all assays above

CN(C)C(=O)Cn1cc(Nc2ncc(Cl)c(N[C@@H]3[C@H]4CC[C@H](C4)[C@@H]3C(N)=O)n2)cn1.CN(C)C(=O)Cn1cc(Nc2ncc(Cl)c(N[C@H]3[C@@H]4CC[C@@H](C4)[C@H]3C(N)=O)n2)cn1 (mixture of isomers) [Example 58, (1R,2S,3R,4S)-3-{[5-chloro-2-({1-[2-(dimethylamino)-2-oxoethyl]-1H-pyrazol-4-yl}amino)pyrimidin-4-yl]amino}bicyclo[2.2.1]heptane-2-carboxamide and (1S,2R,3S,4R)-3-{[5-chloro-2-({1-[2-(dimethylamino)-2-oxoethyl]-1H-pyrazol-4-yl}amino)pyrimidin-4-yl]amino}bicyclo[2.2.1]heptane-2-carboxamide]
< 100 nM: all assays above

NC(=O)[C@@H]1[C@H]2CC[C@H](C2)[C@@H]1Nc1nc(Nc2cnn(CCN3CCOCC3)c2)ncc1Cl.NC(=O)[C@H]1[C@@H]2CC[C@@H](C2)[C@H]1Nc1nc(Nc2cnn(CCN3CCOCC3)c2)ncc1Cl (mixture of isomers) [Example 60, (1R,2S,3R,4S)-3-[(5-chloro-2-{[1-(2-morpholin-4-ylethyl)-1H-pyrazol-4-yl]amino}pyrimidin-4-yl)amino]bicyclo[2.2.1]heptane-2-carboxamide and (1S,2R,3S,4R)-3-[(5-chloro-2-{[1-(2-morpholin-4-ylethyl)-1H-pyrazol-4-yl]amino}pyrimidin-4-yl)amino]bicyclo[2.2.1]heptane-2-carboxamide]
< 100 nM: all assays above

CCn1cc(Nc2ncc(Br)c(N[C@H]3[C@@H](C(N)=O)[C@@H]4C=C[C@H]3C4)n2)cn1 [Example 79, (1S,2S,3R,4R)-3-({5-bromo-2-[(1-ethyl-1H-pyrazol-4-yl)amino]pyrimidin-4-yl}amino)bicyclo[2.2.1]hept-5-ene-2-carboxamide]
< 100 nM: all assays above

NC(=O)[C@@H]1[C@H](Nc2nc(Nc3cnn(CCO)c3)ncc2C(F)(F)F)[C@H]2C=C[C@@H]1C2 [Example 63, (1S,2S,3R,4R)-3-{[2-{[1-(2-hydroxyethyl)-1H-pyrazol-4-yl]amino}-5-(trifluoromethyl)pyrimidin-4-yl]amino}bicyclo[2.2.1]hept-5-ene-2-carboxamide]
< 100 nM: all assays above

5-chloro-N^2-(1H-indazol-5-yl)-N^2-{1-[2-(pyrrolidin-1-yl)ethyl]-1H-pyrazol-4-yl}pyrimidine-2,4-diamine [Example 177]
< 100 nM: all assays above

CN(C)C(=O)Cn1cc(Nc2ncc(Cl)c(N[C@@H]3[C@H](C(N)=O)[C@H]4C=C[C@@H]3C4)n2)cn1.CN(C)C(=O)Cn1cc(Nc2ncc(Cl)c(N[C@H]3[C@@H](C(N)=O)[C@@H]4C=C[C@H]3C4)n2)cn1 (mixture of isomers) [Example 54, (1S,2S,3R,4R)-3-{[5-chloro-2-({1-[2-(dimethylamino)-2-oxoethyl]-1H-pyrazol-4-yl}amino)pyrimidin-4-yl]amino}bicyclo[2.2.1]hept-5-ene-2-carboxamide and (1R,2R,3S,4S)-3-{[5-chloro-2-({1-[2-(dimethylamino)-2-oxoethyl]-1H-pyrazol-4-yl}amino)pyrimidin-4-yl]amino}bicyclo[2.2.1]hept-5-ene-2-carboxamide]
< 100 nM: all assays above

NC(=O)[C@@H]1[C@H](Nc2nc(Nc3cnn([C@@H]4CCCNC4)c3)ncc2Cl)[C@H]2C=C[C@@H]1C2 [Example 84, (1S,2S,3R,4R)-3-{[5-chloro-2-({1-[(3R)-piperidin-3-yl]-1H-pyrazol-4-yl}amino)pyrimidin-4-yl]amino}bicyclo[2.2.1]hept-5-ene-2-carboxamide]
< 100 nM: all assays above

C[C@@H](O)Cn1cc(Nc2ncc(C(F)(F)F)c(N[C@H]3[C@@H](C(N)=O)[C@@H]4C=C[C@H]3C4)n2)cn1 [Example 69, (1S,2S,3R,4R)-3-{[2-({1-[(2R)-2-hydroxypropyl]-1H-pyrazol-4-yl}amino)-5-(trifluoromethyl)pyrimidin-4-yl]amino}bicyclo[2.2.1]hept-5-ene-2-carboxamide]
< 100 nM: all assays above

CCn1cc(Nc2ncc(C(F)(F)F)c(N[C@@H]3[C@H]4CC[C@H](C4)[C@@H]3C(N)=O)n2)cn1 [Example 80, (1R,2S,3R,4S)-3-{[2-[(1-ethyl-1H-pyrazol-4-yl)amino]-5-(trifluoromethyl)pyrimidin-4-yl]amino}bicyclo[2.2.1]heptane-2-carboxamide]
< 100 nM: all assays above

CCn1cc(Nc2ncc(Br)c(N[C@@H]3[C@H](C(=O)NC)[C@H]4C=C[C@@H]3C4)n2)cn1.CCn1cc(Nc2ncc(Br)c(N[C@H]3[C@@H](C(=O)NC)[C@@H]4C=C[C@H]3C4)n2)cn1 (mixture of isomers) [Example 49, (1S,2S,3R,4R)-3-({5-bromo-2-[(1-ethyl-1H-pyrazol-4-yl)amino]pyrimidin-4-yl}amino)-N-methylbicyclo[2.2.1]hept-5-ene-2-carboxamide and (1R,2R,3S,4S)-3-({5-bromo-2-[(1-ethyl-1H-pyrazol-4-yl)amino]pyrimidin-4-yl}amino)-N-methylbicyclo[2.2.1]hept-5-ene-2-carboxamide]
< 100 nM: all assays above

COc1cnc(Nc2cnn(C)c2)nc1NC1C2C=CC(C2)C1C(N)=O (mixture of isomers) [Example 52, (1S,2S,3R,4R)-3-({5-methoxy-2-[(1-methyl-1H-pyrazol-4-yl)amino]pyrimidin-4-yl}amino)bicyclo[2.2.1]hept-5-ene-2-carboxamide and (1R,2R,3S,4S)-3-({5-methoxy-2-[(1-methyl-1H-pyrazol-4-yl)amino]pyrimidin-4-yl}amino)bicyclo[2.2.1]hept-5-ene-2-carboxamide]
< 100 nM: all assays above

CCn1cc(Nc2ncc(Cl)c(N[C@@H]3[C@H](C(=O)NC)[C@H]4C=C[C@@H]3C4)n2)cn1.CCn1cc(Nc2ncc(Cl)c(N[C@H]3[C@@H](C(=O)NC)[C@@H]4C=C[C@H]3C4)n2)cn1 (mixture of isomers) [Example 51, (1S,2S,3R,4R)-3-({5-chloro-2-[(1-ethyl-1H-pyrazol-4-yl)amino]pyrimidin-4-yl}amino)-N-methylbicyclo[2.2.1]hept-5-ene-2-carboxamide and (1R,2R,3S,4S)-3-({5-chloro-2-[(1-ethyl-1H-pyrazol-4-yl)amino]pyrimidin-4-yl}amino)-N-methylbicyclo[2.2.1]hept-5-ene-2-carboxamide]
< 100 nM: all assays above
